Experimental findings from publication PMC5407064 (Cell reports, 2017) are described below.

Substitutions are numbered along the chain they refer to.

One assay deals with T1, SIRT1 K444E (Homo sapiens, UniProt Q96EB6, K444E).
T1 sequence (Q96EB6 2-747 K444E): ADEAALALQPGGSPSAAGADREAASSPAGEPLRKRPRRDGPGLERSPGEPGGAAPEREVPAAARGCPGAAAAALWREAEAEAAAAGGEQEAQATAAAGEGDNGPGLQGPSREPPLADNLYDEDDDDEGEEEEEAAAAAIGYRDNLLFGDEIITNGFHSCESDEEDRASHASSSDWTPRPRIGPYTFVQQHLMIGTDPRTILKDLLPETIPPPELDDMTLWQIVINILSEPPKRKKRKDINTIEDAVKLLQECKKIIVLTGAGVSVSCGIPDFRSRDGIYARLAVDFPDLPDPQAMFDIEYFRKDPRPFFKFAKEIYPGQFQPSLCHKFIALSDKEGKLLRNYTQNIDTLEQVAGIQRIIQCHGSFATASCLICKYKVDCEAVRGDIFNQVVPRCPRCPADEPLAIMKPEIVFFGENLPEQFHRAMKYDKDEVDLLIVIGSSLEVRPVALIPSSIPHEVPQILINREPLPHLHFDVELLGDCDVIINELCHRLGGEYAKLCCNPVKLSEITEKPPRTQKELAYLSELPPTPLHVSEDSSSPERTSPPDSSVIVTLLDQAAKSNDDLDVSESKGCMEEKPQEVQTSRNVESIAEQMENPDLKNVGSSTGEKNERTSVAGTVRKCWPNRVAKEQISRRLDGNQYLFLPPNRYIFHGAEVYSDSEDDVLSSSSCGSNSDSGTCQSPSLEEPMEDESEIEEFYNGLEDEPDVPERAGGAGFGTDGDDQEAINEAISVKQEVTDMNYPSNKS
Kind of assay: steady-state kinetics. The class given is biochemical.

A further assay has as its target T2, SIRT1 (Homo sapiens, UniProt Q96EB6).
T2 sequence (Q96EB6 2-747): T1 sequence (Q96EB6 2-747 K444E) with E443K
The assay can be described thus: SIRT1 activation assay. The class given is biochemical.

With `NC(=O)c1ccc[n+]([C@@H]2O[C@H](COP(=O)([O-])OP(=O)(O)OC[C@H]3O[C@@H](n4cnc5c(N)ncnc54)[C@H](O)[C@@H]3O)[C@@H](O)[C@H]2O)c1` [NAD^+], the “steady-state kinetics (KM, kcat), FDL SIRT1 assay with varied NAD+” value at SIRT1 K444E was “K444E SIRT1 is catalytically more active than WT (higher kcat) and has a significantly lower KM for both substrates”. In the case of `Oc1ccc(/C=C/c2cc(O)cc(O)c2)cc1` [resveratrol], the “SIRT1 activation assay (Fig. S4C); activation peak concentration” value on SIRT1 was 1 mM.
